We go through one molecule from patent US20260364056A1, “METHODS OF TREATMENT OF NON-PANCREATIC GASTROINTESTINAL CANCERS” (IONCTURA bv, priority 2023, published 2026).

The test system of data set [1] is ATX. The note with it: cited from earlier work.
The test system of the next data set is breast cancer. The note with it: in vivo; cited from earlier work.
Data set [2] concerns HT-29 cells. Kind of data set: Wound healing assay. The note with it: 9 and 12 μM, serum-free. It counts as cell-based, human. Here is the method: Cells were seeded in a 12-well plate in 10% FBS medium and grown to reach a 80-90% confluence. Then, a scratch was made on the cell monolayer by using a p200 pipette tip. The plate was washed with sterile PBS to remove the debris and on the outer bottom of the plate were created markings with a tip marker, used as reference points. Each cell line was incubated with medium without FBS and containing increasing concentrations of Compound 1 (1-3-9-12 μM). Images were acquired at 0, 24 and 48 h by using a confocal microscope Nikon Eclipse Ti2 in bright field microscope and analysed with image-J. Image-J software was used to measure the scratched area. Cell migratory ability of wound-healing was assessed using the following formula: [(wound area at 0 h)−(wound area at indicated time)]/(wound area at 0 h).
(§1) Images were taken at time 0, 24 h and 48 h and cell migration into the cell-free region (outlined) was quantified.
Tumor progression is characterized by an enhanced cell motility and invasiveness. To expand upon the knowledge of the effects of Compound 1 on HLE, KKU-m213 and HT-29 cells, their migratory activity was assessed when treated with Compound 1 by using both, a wound healing and a transwell migration assay. Cells were seeded in a 12-well plate and, when a confluent monolayer was reached, an artificial gap was generated between the cells using a pipette tip. […]

Data set [3] has as its system HLE cells. Description: Transwell migration assay. The format is cell-based, human. The note with it: 12 μM, 24 h, serum-free medium in upper chamber. On the procedure: (§2) Cell culture inserts with […] pores (Corning, inc.) were coated with 50 μl of a 10 mg/ml Collagen type 1 solution (Gibco). 1.5×10^4 cells were plated in the upper chamber in serum-free medium, in absence or presence of 12 μM Compound 1, while the bottom wells were filled with complete medium. The cells were allowed to migrate across the membrane for at least 16 h. After incubation, the cells were fixed with PFA 4% for 10′ and stained with 0.02% crystal violet for 10′. The excess dye was washed off with tap water and the non-migrated cells were scraped off from the upper surface of the membrane with a cotton swab. Cell migratory ability was assessed by counting the average number of cells at least 5 field at 10× magnification.
as §1
(§3) Tumor progression is characterized by an enhanced cell motility and invasiveness. To expand upon the knowledge of the effects of Compound 1 on HLE, KKU-m213 and HT-29 cells, their migratory activity was assessed when treated with Compound 1 by using both, a wound healing and a transwell migration assay. Cells were seeded in a 12-well plate and, when a confluent monolayer was reached, an artificial gap was generated between the cells using a pipette tip. The scratch closure of migrating cells was observed after […]. […] In HLE cells a 3 μM concentration of Compound 1 is already sufficient to cause a 40% inhibition of cell migration. […] (FIG. 3B).

Data set [4] relates to HT-29 cells. Description: Transwell migration assay. As to conditions: 12 μM, 24 h, serum-free medium in upper chamber. The format is cell-based, human. Here is the method:
as §2, §1, §3

The test system of data set [5] is KKU-M213 cells. Description: Transwell migration assay. The note with it: 12 μM, 24 h, serum-free medium in upper chamber. The format is cell-based, human. On the procedure: as §2, §1, §3
In data set [6] the test system is xenografted tumours of KKUM-213 cells and human cancer-associated fibroblasts. Description: Tumour growth in vivo, mouse xenograft model of cholangiocarcinoma. The note with it: 10 mg/kg twice daily, oral gavage, from 5th day, vs vehicle, n=5, Mann-Whitney P<0.05. Here is the method:
To further explore the activity of Compound 1 on gastrointestinal cancer cells in vivo, the effectiveness in a mouse model of cholangiocarcinoma was investigated. Xenografted tumours were produced by co-injection of KKUM-213 cells and human cancer-associated fibroblasts (CAFs). Starting from the 5th day the mice were treated twice daily with Compound 1 (10 mg/kg) or vehicle (1% (w/v) methylcellulose in water) by oral gavage. The tumour volumes were monitored twice a week until the animals were sacrificed. […] Data are presented as the mean±SD (n=5 mice per group; Mann-Whitney test:*P<0.05).

For data set [7], the system named is ATX. The note with it: cited from earlier work. The source holds these as a separate data set.
The subject of data set [8] is HLE cells. Description: Cell viability assay (crystal violet). It counts as cell-based, human. Here is the method:
Human colorectal adenocarcinoma HT29 and Caco-2 cells, hepatocellular carcinoma HLE cells, cholangiocarcinoma RBE and KKU-M213 cells were purchased from the American […] Culture Collection (ATCC, Manassas, VA, USA). The hepatocellular carcinoma cell line HLF was purchased from JCRB Cell Bank (Japan). All cell lines were cultured in Dulbecco's Modified Eagle Medium (DMEM) supplemented with 10% foetal bovine serum (FBS), 1 mM pyruvate, 25 mM HEPES, 100 U/mL penicillin-streptomycin (all from Thermo Fisher Scientific, Waltham, MA, USA), and maintained in a humidified atmosphere at 37 °C containing 5% CO2. The medium was changed every three days. Oleoyl-LPA was purchased from Avanti Polar Lipids (Birmingham, AL).
Cells were seeded in 96-well plates at a density of 2000 cells/well in 10% FBS supplemented medium. After 24 h, medium was removed, the cells washed with PBS and cultured in the presence or absence of FBS and of different concentrations of Compound land LPA. After the time set for the experiment, the cells were fixed with a 4% PFA solution and stained with 0.02% crystal violet for 10 min. Subsequently the plates have been washed with water to remove excess dye. The cell-bound dye was redissolved in 1% SDS and the optical density was measured at λ=570 with a iMark™ Microplate Absorbance Reader (Bio-rad).
FIGS. 2A and 2B show the effect of Compound 1 on cell proliferation in the absence of FBS and in the presence of 10% FBS. […] Cells were grown in serum free culture medium or in presence of 10% FBS and incubated with increasing Compound 1 concentrations or with DMSO (control cells) for 24, 48 and 72 hours. After fixation, proliferation was assessed by crystal violet staining method. *P<0.05.
To evaluate the anti-proliferative/cytotoxic effects of Compound 1, six different cancer tumour cell lines were treated developed from cholangiocarcinoma (CCA), hepatocellular carcinoma (HCC) and colorectal cancer (CRC), with increasing concentration of the Compound 1 ranging from 10 μM up to 50 μM and at different times of incubation. After 24, 48 and 72 hours of drug treatment, attached cells were fixed and stained with crystal violet dye. This method is used to evaluate the effect of chemotherapeutics or other anti-cancer drugs on cell survival and proliferation. In the first experiments, Compound 1 was administered to cells in culture medium supplemented with 10% FBS. […] To test the hypothesis that the presence of serum, and consequently the endogenous LPA, could interfere with the Compound 1 activity, all the cancer cells were treated with Compound 1 at concentration ranging from 1 μM up to 12 μM, in the presence or absence of 10% FBS.

Another data set relates to lung fibrosis. The note with it: compared with GLPG1690; cited from earlier work.
Data set [9] concerns KKU-M213 cells. Description: Crystal violet staining and morphology under inverted light microscope. The format is cell-based, human. The note with it: 3, 9 and 12 μM, 72 h.

For the molecule `C[C@H](NC(=O)CCc1nc2cccnc2n1Cc1ccc(OC(F)(F)F)cc1)c1ccc(Cl)cc1` [Compound 1, N-[(S)-1-(4-chloro-phenyl)-ethyl]-3-[3-(4-trifluoromethoxy-benzyl)-3H-imidazo[4,5-b]pyridin-2-yl]-propionamide], the “binding site on ATX” value in the data set with ATX [1] was “does not bind to the catalytic zinc region of ATX but binds to both the substrate pocket and the LPA carrier channel”. The “dissemination of primary tumors” value in the data set with breast cancer was “inhibit the dissemination of primary tumors”. In addition, the “inhibition of wound closure” value with HT-29 cells [2] is “significantly (p<0.05) inhibited wound closure”. Further, the “migratory capacity (migrated cells through the membrane)” value in the data set on HLE cells [3], in the data set on HT-29 cells [4] and in the data set on KKU-M213 cells [5] was “significantly inhibited migratory capacity” each time. The “tumour progression (tumour volume)” value in [6] was “significantly reduces tumour progression”. Also, in the data set with ATX [7], the ATX inhibition result was “inhibits ATX with high selectivity”. The “effect on cell proliferation” value in the data set on HLE cells [8] (1 μM up to 12 μM, 10% FBS, 24, 48 and 72 h) is given as “generally the same as the control”. Besides, the “effect of FBS on activity of Compound 1” value in the data set on HLE cells [8] (9 μM, 72 h, 5% FBS) was “completely abolishing the Compound 1 effect”; in the data set with HLE cells [8] (9 μM, 72 h, starting at 2% FBS), “significantly (p<0.05) reduced the activity of Compound 1”. Moreover, the “cell inhibition compared to control” value in the data set with HLE cells [8] (9 μM, 72 h, no FBS) is “clear difference in the cell inhibition compared to the control”. The “cytotoxic effect / inhibition of cell proliferation” value with HLE cells [8] (3 to 12 μM, absence of FBS, evident after 48 h, stronger after 72 h) was “significant (p<0.05) cytotoxic effect in a dose-dependent manner”. In addition, the cytotoxic effect entry in the data set on HLE cells [8] (30 to 50 μM, medium with 10% FBS) is listed as “significant (p<0.05) cytotoxic effect”. Moreover, in the data set with lung fibrosis, the “reduction in fibrosis score” value was “greater reduction in fibrosis score compared with GLPG1690”. Also, the morphological changes entry in the data set with KKU-M213 cells [9] is “cells exhibit morphological changes and characteristics of apoptosis such as cell shrinkage and cytoplasmic vacuolization”.
